Laboratory results as given in publication PMC3549684 (Bioorganic & medicinal chemistry letters, 2012).

What was measured:
[1] = target: T1, recombinant mouse Lp-PLA2 (Mus musculus, UniProt Q60963); conditions: previously shown; cited from earlier work
T1 sequence (Q60963 22-440): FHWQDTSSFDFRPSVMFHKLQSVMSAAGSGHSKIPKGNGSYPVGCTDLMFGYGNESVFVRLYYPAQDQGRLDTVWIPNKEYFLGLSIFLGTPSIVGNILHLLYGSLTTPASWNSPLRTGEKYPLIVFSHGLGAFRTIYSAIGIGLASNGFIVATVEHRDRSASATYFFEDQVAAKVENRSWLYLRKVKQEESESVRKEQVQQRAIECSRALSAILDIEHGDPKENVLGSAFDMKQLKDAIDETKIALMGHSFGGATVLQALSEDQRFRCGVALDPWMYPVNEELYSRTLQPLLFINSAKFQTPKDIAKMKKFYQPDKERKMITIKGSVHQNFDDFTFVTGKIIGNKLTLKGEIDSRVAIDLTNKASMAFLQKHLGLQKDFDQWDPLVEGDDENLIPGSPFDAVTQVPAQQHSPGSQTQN

[2] = test system: serine hydrolases detected in mouse brain; format: biochemical; conditions: FP-Rh, concentrations up to 10 µM
[3] = test system: other ~40 serine hydrolases detected in PC3 cells; assay: ABPP-SILAC of inhibitor-treated PC3 cells in situ, other serine hydrolases; format: cell-based, human; conditions: 100 nM, 4 hours
[4] = test system: diabetic and hypercholesterolemic swine; conditions: cited from earlier work
[5] = test system: human patients with coronary heart disease; conditions: cited from earlier work
ApoE-deficient mice = conditions: cited from earlier work
[6] = test system: other detected serine hydrolase activities in the PC3 cell proteome; assay: competitive ABPP with FP-Rh in PC3 cell proteome, selectivity; format: biochemical, human; conditions: FP-Rh probe

| SMILES | inhibition of mouse Lp-PLA2 [1] | cross-reactivity with other serine hydrolases [2] | effect on other ~40 serine hydrolases in situ [3] | atherosclerotic plaque formation [4] | plasma Lp-PLA2 activity [4] | atherosclerotic plaque formation [5] | plasma Lp-PLA2 activity [5] | atherosclerotic plaque formation (ApoE-deficient mice) | plasma Lp-PLA2 activity (ApoE-deficient mice) | inhibition of other detected serine hydrolase activities [6] |
| --- | --- | --- | --- | --- | --- | --- | --- | --- | --- | --- |
| CCCCCCCCCCC[C@@H](C[C@@H]1OC(=O)[C@H]1CCCCCC)OC(=O)[C@H](CC(C)C)NC=O [THL, tetrahydrolipstatin] | inhibited | – | – | – | – | – | – | – | – | – |
| CCN(CC)CCN(Cc1ccc(-c2ccc(C(F)(F)F)cc2)cc1)C(=O)Cn1c(SCc2ccc(F)cc2)nc(=O)c2c1CCC2 [darapladib] | – | neither darapladib nor JMN4 cross-reacted | not affecting any | significantly decrease | significantly decrease | significantly decrease | significantly decrease | significantly decrease | significantly decrease | not inhibited |
